Source: ChEMBL document CHEMBL1201862, “PubChem BioAssay data set” (2004)
Activity calls are given as the source filed them.

Columns and labels:
Leucine aminopeptidase = biological target: T1, Leucine aminopeptidase (Plasmodium falciparum 3D7, UniProt Q8IL11); test: P. falciparum M17LAP inhibitors, primary screen, biochemical, fluorogenic H-Leu-NHMec substrate, 1536-well (AID 1619); assay type: functional
T1 sequence (Q8IL11 whole entry): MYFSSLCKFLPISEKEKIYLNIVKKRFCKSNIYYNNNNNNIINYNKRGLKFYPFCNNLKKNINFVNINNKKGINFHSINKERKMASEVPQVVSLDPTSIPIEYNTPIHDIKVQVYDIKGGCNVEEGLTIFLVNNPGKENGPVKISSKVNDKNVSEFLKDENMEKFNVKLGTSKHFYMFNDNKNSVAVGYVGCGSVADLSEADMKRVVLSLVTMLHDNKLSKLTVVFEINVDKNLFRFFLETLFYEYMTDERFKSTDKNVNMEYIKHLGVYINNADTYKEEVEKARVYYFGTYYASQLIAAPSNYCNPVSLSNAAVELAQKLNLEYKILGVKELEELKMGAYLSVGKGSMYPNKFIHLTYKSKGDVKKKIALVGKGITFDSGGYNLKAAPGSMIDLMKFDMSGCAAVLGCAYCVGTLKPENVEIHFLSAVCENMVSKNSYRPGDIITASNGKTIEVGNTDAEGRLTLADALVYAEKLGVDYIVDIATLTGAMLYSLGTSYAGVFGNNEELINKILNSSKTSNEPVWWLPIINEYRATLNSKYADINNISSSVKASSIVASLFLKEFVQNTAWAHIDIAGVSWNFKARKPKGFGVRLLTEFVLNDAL

[1] = biological target: Bifunctional protein GlmU (Mycobacterium tuberculosis, UniProt P9WMN3); test: Inhibitors of Mycobacterial Glucosamine-1-phosphate acetyl transferase (GlmU). Secondary screen.; design: species or system Mycobacterium tuberculosis H37Rv
Chain of Bifunctional protein GlmU (P9WMN3 whole entry): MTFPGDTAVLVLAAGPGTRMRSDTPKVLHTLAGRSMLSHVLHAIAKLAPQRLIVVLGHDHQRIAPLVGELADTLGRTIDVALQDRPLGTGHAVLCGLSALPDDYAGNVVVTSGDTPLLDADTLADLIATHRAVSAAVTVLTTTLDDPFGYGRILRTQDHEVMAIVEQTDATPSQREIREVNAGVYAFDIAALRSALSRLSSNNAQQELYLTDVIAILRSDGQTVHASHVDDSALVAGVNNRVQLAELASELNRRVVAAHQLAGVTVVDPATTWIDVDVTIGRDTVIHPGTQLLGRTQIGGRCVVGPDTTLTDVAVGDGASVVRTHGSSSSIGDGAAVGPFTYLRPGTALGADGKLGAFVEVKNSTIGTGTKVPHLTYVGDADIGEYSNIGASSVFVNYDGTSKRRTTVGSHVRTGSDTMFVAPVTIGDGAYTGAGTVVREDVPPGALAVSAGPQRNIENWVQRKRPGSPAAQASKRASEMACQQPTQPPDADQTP

[2] = biological target: 26S proteasome non-ATPase regulatory subunit 14 (Homo sapiens, UniProt O00487); test: inhibition of proteasome subunit RPN11 – biochemical, fluorescence polarization, uHTS hits, confirmation (AID 602368); assay type: functional
Chain of 26S proteasome non-ATPase regulatory subunit 14 (O00487 whole entry): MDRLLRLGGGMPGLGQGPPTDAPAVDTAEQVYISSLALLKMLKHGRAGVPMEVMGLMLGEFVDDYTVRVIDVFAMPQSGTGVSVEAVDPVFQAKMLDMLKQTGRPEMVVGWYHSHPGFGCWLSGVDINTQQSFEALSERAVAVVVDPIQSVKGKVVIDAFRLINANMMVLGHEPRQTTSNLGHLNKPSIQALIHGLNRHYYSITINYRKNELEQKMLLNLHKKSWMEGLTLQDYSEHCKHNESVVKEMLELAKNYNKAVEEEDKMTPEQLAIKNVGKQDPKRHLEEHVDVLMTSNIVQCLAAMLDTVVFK

[3] = biological target: E3 ubiquitin-protein ligase Mdm2 (Homo sapiens, UniProt Q00987); test: MDM2-luc reporter signal enhancers, multi-concentration potency testing, MDM2 ubiquitin-protein ligase inhibitor program, whole-cell format, luminescence detection, 384-well microplate (AID 1394); assay type: functional;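 note: MDM2 E3 inhibitors raise luminescence so EC50 is for signal enhancement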
Chain of E3 ubiquitin-protein ligase Mdm2 (Q00987 whole entry): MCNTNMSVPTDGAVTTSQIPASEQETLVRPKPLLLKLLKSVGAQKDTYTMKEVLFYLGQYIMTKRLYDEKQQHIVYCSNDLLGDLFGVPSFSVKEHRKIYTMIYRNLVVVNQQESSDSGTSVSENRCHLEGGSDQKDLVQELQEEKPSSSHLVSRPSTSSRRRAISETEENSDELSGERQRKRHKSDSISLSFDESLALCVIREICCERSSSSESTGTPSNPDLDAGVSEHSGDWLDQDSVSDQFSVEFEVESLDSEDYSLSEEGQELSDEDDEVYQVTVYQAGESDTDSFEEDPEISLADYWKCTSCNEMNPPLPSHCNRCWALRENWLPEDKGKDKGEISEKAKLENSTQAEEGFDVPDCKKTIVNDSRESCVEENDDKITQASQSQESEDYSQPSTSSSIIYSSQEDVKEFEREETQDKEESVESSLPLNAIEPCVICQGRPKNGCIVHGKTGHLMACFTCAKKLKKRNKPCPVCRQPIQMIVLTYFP

Prothrombin = Prothrombin (Bos taurus, UniProt P00735); test: thrombin protease inhibitors – biochemical, fluorescence polarization, uHTS hits, dose response (AID 602369); assay type: functional
[4] = biological target: 72 kDa type IV collagenase (Homo sapiens, UniProt P08253); test: Dose Response validation of uHTS RPN11 inhibitor hits using a MMP-2 Fluorescence assay.; assay type: functional
Chain of 72 kDa type IV collagenase (P08253 whole entry): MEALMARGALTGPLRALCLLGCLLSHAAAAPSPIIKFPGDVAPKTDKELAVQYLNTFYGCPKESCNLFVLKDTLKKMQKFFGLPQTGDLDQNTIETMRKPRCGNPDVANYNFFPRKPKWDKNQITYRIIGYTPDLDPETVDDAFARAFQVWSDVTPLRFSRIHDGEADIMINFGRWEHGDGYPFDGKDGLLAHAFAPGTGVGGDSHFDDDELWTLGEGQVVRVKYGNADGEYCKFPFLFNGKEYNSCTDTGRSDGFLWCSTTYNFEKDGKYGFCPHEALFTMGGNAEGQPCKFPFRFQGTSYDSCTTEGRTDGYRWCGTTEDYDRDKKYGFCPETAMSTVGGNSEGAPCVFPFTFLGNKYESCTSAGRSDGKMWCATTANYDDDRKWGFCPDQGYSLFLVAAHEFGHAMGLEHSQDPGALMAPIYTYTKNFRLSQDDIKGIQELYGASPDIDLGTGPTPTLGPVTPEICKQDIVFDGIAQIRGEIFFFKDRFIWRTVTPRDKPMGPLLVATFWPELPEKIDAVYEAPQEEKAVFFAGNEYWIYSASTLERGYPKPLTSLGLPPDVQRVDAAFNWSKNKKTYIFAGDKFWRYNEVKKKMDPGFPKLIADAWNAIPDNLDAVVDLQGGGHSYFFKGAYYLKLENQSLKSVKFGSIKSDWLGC

H9c2 = test: cells; assay type: functional, cell-based; conditions: Rattus norvegicus, H9c2, Myocardium;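 note: confirmatory concentration-response retest of ultra-high-throughput screening hits for modulation of myocardial damage; cell death induced by hydrogen peroxide oxidative stress; compound pretreatment for 60 min then peroxide exposure for 2 h; potency is for protecting the cells against peroxide damage rather than for killing them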
[5] = toxicity to human hepatoma HepG2 cells – cell-based, cherry-picked samples, cytotoxicity control, dose response (AID 1159577); assay type: functional
[6] = P. falciparum Dd2 growth inhibitors, dose response, SYBR Green, cherry-picked samples (AID 1159567); assay type: functional, cell-based
[7] = toxicity to human HepG2 hepatoma cells – cell-based, plate reader, dry powder samples, cytotoxicity control, dose response (AID 1159569); assay type: functional;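 note: inhibitor potency with signal falling toward the positive control level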
HEK293 [8] = test: cells; conditions: Homo sapiens
[9] = Dd2 malaria parasite growth inhibition potency – SYBR Green, dry powder samples, dose response (AID 1159566); assay type: functional, cell-based;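 note: potency for growth inhibition with lower SYBR green DNA signal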
[10] = viability loss in CEM21 cells – cell-based, CellTiter-Glo luminescence, cherry-picked, cytotoxicity control for viral fusion inhibitor project, dose response (AID 652042); assay type: functional;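 note: potency for signal decrease meaning cytotoxicity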
[11] = blockers of HIV-1 envelope-mediated cell-cell fusion – cherry-pick, dose response (AID 652057); assay type: functional, cell-based
[12] = growth inhibition of PfATP4-mutant resistant parasites – NITD609-resistant line, SYBR Green, dry powder, dose response (AID 1159571); assay type: functional, cell-based;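 note: parasites synchronized at ring stage by sorbitol before testing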
[13] = blockers of HIV-1 ZM109 envelope-driven cell-cell fusion – HeLa effector, CEM target cells, luciferase, cherry-pick, dose response (AID 652058); assay type: functional, cell-based;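 note: luciferase signal from HIV-1 Env mediated cell-cell fusion of effector and target cells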
HEK293 [14] = test: cells; conditions: Homo sapiens; remark: listed apart in the source
[15] = growth inhibition of yeast DHODH-expressing 3D7 parasites – SYBR Green, dry powder samples, dose response (AID 1159570); assay type: functional, cell-based;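 note: parasite growth measured after 72 hours of compound exposure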
[16] = off-target signal loss in HeLa-CEM21 co-culture – HeLa F-luc CTL cells, cherry-picked, counter-screen for HIV-1 Env fusion inhibitor project, dose response (AID 652040); assay type: functional, cell-based;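 note: potency for signal decrease marking cytotoxic or nonspecific inhibition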
[17] = HIV-1 AD8 envelope cell-cell fusion blockers – cherry-pick, dose response (AID 652062); assay type: functional, cell-based;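 note: luciferase signal from cell-cell fusion driven by HIV-1 clade B AD8 Env; potency is for inhibitors of fusion seen as a drop in luminescence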

O=C(O)c1cccc(-c2ccc(/C=N/NC(=O)c3cccnc3)o2)c1
IC50 (Leucine aminopeptidase): 37.5 µM (active) | IC50 [1]: 185 µM (active)

COc1cccc(/C=N/NC(=O)c2[nH]c(C)c(C(=O)N/N=C/c3cccc(OC)c3)c2C)c1
IC50 [2]: 1.41 µM (active) | EC50 [3]: 6.15 µM (not active) | IC50 (Prothrombin): > 100 µM (inactive) | IC50 [4]: > 100 µM (inactive) | IC50 (H9c2): 10.6 µM (active)

C[C@H]1CN([C@@H](C)CO)C(=O)c2ccccc2-c2ccccc2CO[C@H]1CN(C)Cc1ccc(C(F)(F)F)cc1
AC50 [5]: > 42 µM (inactive) | AC50 [6]: 3.03 µM (active)

CCC(=O)N1CC(=O)N2[C@@H](CO)[C@H](c3ccc(C#CCc4ccccc4)cc3)[C@@H]2C1
AC50 [5]: 25.2 µM (active) | AC50 [6]: 11.4 µM (active)

Cc1ccc(S(=O)(=O)N(C)C[C@@H]2OCc3ccccc3-c3c(n(C)c4ccccc34)C(=O)N([C@H](C)CO)C[C@@H]2C)cc1
AC50 [7]: 52.3 µM (active) | EC50 (HEK293 [8]): > 59.6 µM (inactive) | AC50 [9]: 65.5 nM (active) | AC50 [10]: 29.6 µM (active) | AC50 [11]: 1.87 µM (active) | AC50 [12]: 106 nM (active) | AC50 [13]: 2 µM (active) | EC50 (HEK293 [14]): > 59.6 µM (inactive) | AC50 [15]: 151 nM (active) | AC50 [6]: 0.676 µM (active) | AC50 [16]: 1.66 µM (active) | AC50 [17]: 2.16 µM (active)

COc1ccc(Nc2nc(C(=O)N3CCc4ccccc4C3)cs2)cc1
EC50 [3]: 12.3 µM (not active)
